Experiment [1] relates to Pythium ultimum. The experiment in a line: Fungal growth inhibition, treated disc on agar (PYT ULT). It counts as cell-based. The note with it: disc dipped in 500 mg/l, 29° C.; for inhibition at 500 µg/mL: Globisporangium ultimum, read-out: Percent Growth Inhibition, PYT ULT.
For experiment [2], the system named is Botrytis cinerea. The experiment in a line: Fungal growth inhibition, treated disc on agar (BOT CIN). The class given is cell-based. The settings on record: disc dipped in 500 mg/l, 29° C.; for inhibition at 500 µg/mL: Botrytis cinerea, read-out: Percent Growth Inhibition, BOT CIN.
The subject of experiment [3] is Erysiphe polygoni. The experiment in a line: Powdery mildew on pinto bean, foliar application (ERY POL). The class given is in vivo. The settings on record: similar procedure as barley (1,000 mg/l); for pest or weed control at 1000 µg/mL: Erysiphe polygoni, read-out: Percent Reduction of Disease, ERY POL. The protocol:
Compositions containing Compounds Nos. 1-81 were prepared by dissolving 0.24 grams of each of the compounds in 8 ml of acetone or other suitable inert solvent. Each of the resultant solutions was treated with 3 drops of TWEEN 20 (ethoxylated ethylene sorbitan monolaurate, a non-ionic surfactant)(I.C.I.), and water was added to form an emulsion. The degree of dilution with water was dictated by the desired concentration of the compound in the composition. The greater the quantity of water added, the lower the concentration of the compound in the composition, reported in milligrams per liter (mg/l) Ten plants of "Robust" variety barley were planted in each of a plurality of pots. Each pot was then either sprayed with one of the compositions of Example 9, at a composition concentration of 1,000 mg/l, or left unsprayed. For each pot sprayed, one pot was left unsprayed as a control. After the leaves of the sprayed pots were dried, the sprayed pots and the unsprayed control pots were placed in a greenhouse maintained at 21° C. All the pots were then inoculated with barley powdery mildew fungus, Erysiphe graminis. This inoculation was accomplished by distributing spores of the fungus over the leaves of the plants to be tested from plants which had previously been infected with the mildew disease. […] Again, percent control was computed by comparing the treatment scores with the scores of the untreated controls. The results are summarized in Table II under the heading "ERY GRA". Using a similar procedure as described above for the barley, pinto bean plants were prepared, treated and inoculated with the fungus Erysiphe polygoni. The results of this testing are summarized in Table II under the heading "ERY POL".

Experiment [4] deals with Colletotrichum gossypii. The experiment in a line: Fungal growth inhibition, treated disc on agar (COL GOS). It counts as cell-based. The note with it: disc dipped in 500 mg/l, 29° C.; for inhibition at 500 µg/mL: Colletotrichum gossypii, read-out: Percent Growth Inhibition, COL GOS.
For experiment [5], the system named is Scierotinia minor. The experiment in a line: Fungal growth inhibition, treated disc on agar (SCL MIN). The class given is cell-based. The settings on record: disc dipped in 500 mg/l, 29° C.; for inhibition at 500 µg/mL: read-out: Percent Growth Inhibition, SCL MIN.
From the text: Filter paper discs, each 11 mm. in diameter, were dipped in each of the test solutions. The discs were allowed to air dry to drive off the acetone solvent. A number of untreated discs were used as controls.
The treated and untreated discs were then placed on agar plates and one of the following fungus species: Septoria nodorum (SEP NOD), Botrytis cinerea (BOT CIN), Fusarium oxysporum (FUS OXY), Pythium ultimum (PYT ULT), Rhizoctonia solani (RHI SOL), Colletotrichum gossypii (COL GOS), and Scierotinia minor (SCL MIN), was added to the center of each disc in the form of a culture plug with the fungus mat in contact with the paper of the test disc. Cercosporidium personatum (CER PER), was added to discs as a spore suspension (20,000 spores/ml) to the disc (two drops of spore suspension per disc), rather than a mycelial culture plug. The plates were then incubated at 29° C. in an oven.
With the exception of the discs containing Cercosporidium personatum, the discs were evaluated by first measuring the radius from the center of the fungus colony on the treated discs and on the untreated discs. Percent growth inhibition of each of the compounds tested was determined as a function of the difference between the radius of the fungus colony on the treated disc versus the radius of the fungus colony on the untreated disc.
The subject of experiment [6] is Uromyces phaseoli. The experiment in a line: Bean rust fungus eradicant test (URO PHA). The class given is in vivo. The settings on record: pinto bean, eradicant spray 2 days after inoculation, 1,000 mg/l; for pest or weed control at 1000 µg/mL: Uromyces phaseoli, 216 h, read-out: Percent Reduction of Disease, URO PHA. How it is done:
Compositions containing Compounds Nos. 1-81 were prepared by dissolving 0.24 grams of each of the compounds in 8 ml of acetone or other suitable inert solvent. Each of the resultant solutions was treated with 3 drops of TWEEN 20 (ethoxylated ethylene sorbitan monolaurate, a non-ionic surfactant)(I.C.I.), and water was added to form an emulsion. The degree of dilution with water was dictated by the desired concentration of the compound in the composition. The greater the quantity of water added, the lower the concentration of the compound in the composition, reported in milligrams per liter (mg/l) A plurality of pots were each planted with two pinto bean plants, Phaseolus vulgaris, each, susceptible to rust disease. When the plants were 7 days old, at the primary leaf stage of growth, they were all sprayed with a suspension containing 20,000 spores of the bean rust fungus, Uromyces phaseoli, per ml. All the pots were then incubated in a controlled environmental chamber, maintained at 99% humidity and 21° C., for 24 hours to allow infection to occur. The plants were then removed from the incubator and allowed to dry. Two days after inoculation each of the infected plants was then either sprayed with one of the compositions of Example 9, at a dosage of 1,000 mg/l, or left unsprayed. The unsprayed plants acted as controls. All of the sprayed and unsprayed plants were then placed in a greenhouse at 21° C. for nine days to allow the disease to develop. […] Control of disease was determined by comparing treated plants with the untreated controls. The results, expressed as percent reduction of disease, are summarized in Table II under the heading "URO PHA".

In general, inhibition refers to the drop in the measured response relative to a control, in per cent. Regarding `CCCCC(C#N)(Cc1ccc(C(C)(C)C)cc1)c1cccnc1` (stereo not drawn) [Compound 19], the inhibition at 500 µg/mL in experiment [1] worked out at 93%; in experiment [2], 40%; in experiment [4], 91%; in experiment [5], 100%. For the same molecule, the pest or weed control at 1000 µg/mL in experiment [3] came out at 100%; in experiment [6], 0%.
On to `CCCC(C#N)(CCc1ccccc1)c1ccncc1` (stereo not drawn) [Compound 25], for which the inhibition at 500 µg/mL in experiment [1] was found to be 0%; in experiment [2], 55%; in experiment [4] it was 72%; in experiment [5], 86%. Further, the pest or weed control at 1000 µg/mL in experiment [3] and in experiment [6] was 17% in each case.
On to `CCCCC(C#N)(CCc1ccccc1)c1ccncc1` (stereo not drawn) [Compound 26], for which the inhibition at 500 µg/mL was 0% in experiment [1], 5% in experiment [2], 75% in experiment [4] and 96% in experiment [5]. Moreover, the pest or weed control at 1000 µg/mL in experiment [3] stood at 17%; in experiment [6] it was 0%.
As to `C=CCC(C#N)(CCc1ccc(OC)cc1)c1ccccn1` (stereo not drawn) [Compound 28], the “Percent Growth Inhibition, PYT ULT” value in experiment [1] is 10%. The “Percent Growth Inhibition, BOT CIN” value in experiment [2] turned out to be 98%. For the same molecule, in experiment [3], the “Percent Reduction of Disease, ERY POL” value is given as 100%. Also, the “Percent Growth Inhibition, COL GOS” value in experiment [4] was determined as 100%. In experiment [5], the “Percent Growth Inhibition, SCL MIN” value was 96%. Also, the “Percent Reduction of Disease, URO PHA” value in experiment [6] is on record as 100%.
Consider `COc1ccc(CCC(C#N)(CC(C)C)c2ccccn2)cc1` (stereo not drawn) [Compound 29], for which the “Percent Growth Inhibition, PYT ULT” value in experiment [1] was 0%. In addition, the “Percent Growth Inhibition, BOT CIN” value in experiment [2] was determined as 98%. Besides, the “Percent Reduction of Disease, ERY POL” value in experiment [3] was 100%. Further, the “Percent Growth Inhibition, COL GOS” value in experiment [4] was 95%. For the same molecule, the “Percent Growth Inhibition, SCL MIN” value in experiment [5] is listed as 94%. Moreover, the “Percent Reduction of Disease, URO PHA” value in experiment [6] is on record as 100%.
Turning to `CCCCCC(C#N)(CCc1ccc(OC)cc1)c1ccccn1` (stereo not drawn) [Compound 30], the “Percent Growth Inhibition, PYT ULT” value in experiment [1] turned out to be 0%. Moreover, the “Percent Growth Inhibition, BOT CIN” value in experiment [2] came to 88%. The “Percent Reduction of Disease, ERY POL” value in experiment [3] was found to be 100%. Moreover, the “Percent Growth Inhibition, COL GOS” value in experiment [4] is reported as 80%. The “Percent Growth Inhibition, SCL MIN” value in experiment [5] is on record as 100%. Also, in experiment [6], the “Percent Reduction of Disease, URO PHA” value stood at 100%.
`CCCCC(C#N)(CCc1ccc(OC)cc1)c1ccccn1` (stereo not drawn) [Compound 31]: the “Percent Growth Inhibition, PYT ULT” value in experiment [1] is on record as 93%. In addition, in experiment [2], the “Percent Growth Inhibition, BOT CIN” value was determined as 89%. Besides, in experiment [3], the “Percent Reduction of Disease, ERY POL” value stood at 90%. Further, the “Percent Growth Inhibition, COL GOS” value in experiment [4] came out at 70%. The “Percent Growth Inhibition, SCL MIN” value in experiment [5] stood at 75%. The “Percent Reduction of Disease, URO PHA” value in experiment [6] is recorded as 35%.
Regarding `N#CC(CCCc1ccc(Cl)cc1)(CC1CC1)c1ccccn1` (stereo not drawn) [Compound 32], the “Percent Growth Inhibition, PYT ULT” value in experiment [1] was 0%. The “Percent Growth Inhibition, BOT CIN” value in experiment [2] is recorded as 96%. Moreover, the “Percent Reduction of Disease, ERY POL” value in experiment [3] was determined as 100%. Further, the “Percent Growth Inhibition, COL GOS” value in experiment [4] was 97%. Moreover, the “Percent Growth Inhibition, SCL MIN” value in experiment [5] came to 98%. Besides, the “Percent Reduction of Disease, URO PHA” value in experiment [6] is reported as 85%.
For `C=CCC(C#N)(CCc1ccc(C)cc1)c1cccnc1` (stereo not drawn) [Compound 33], the inhibition at 500 µg/mL is 50% in experiment [1], 98% in experiment [2], 100% in experiment [4] and 100% in experiment [5]. The pest or weed control at 1000 µg/mL in experiment [3] and in experiment [6] was 100% in each case.
For `CCCCC(C#N)(CCc1ccc(C)cc1)c1cccnc1` (stereo not drawn) [Compound 34], the inhibition at 500 µg/mL in experiment [1] was determined as 0%; in experiment [2], 100%; in experiment [4], 100%; in experiment [5] it was 100%. Also, the pest or weed control at 1000 µg/mL in experiment [3] and in experiment [6] was 100% in each case.
For the molecule `CCCCC(C#N)(CCc1ccc(OCC)cc1)c1cccnc1` (stereo not drawn) [Compound 35], in experiment [1], the “Percent Growth Inhibition, PYT ULT” value is given as 0%. Further, the inhibition at 500 µg/mL was 91% in experiment [2] and 97% in experiment [4]. Besides, the pest or weed control at 1000 µg/mL in experiment [3] is 100%. In addition, the “Percent Growth Inhibition, SCL MIN” value in experiment [5] was 88%. In addition, in experiment [6], the “Percent Reduction of Disease, URO PHA” value was 90%.
As for `CCCCCCC(C#N)(CCc1ccc(OC)cc1)c1cccnc1` (stereo not drawn) [Compound 36], the inhibition at 500 µg/mL in experiment [1] was determined as 75%; in experiment [2] it was 45%; in experiment [4], 0%; in experiment [5], 100%. Besides, the pest or weed control at 1000 µg/mL in experiment [3] and in experiment [6] was 100% each time.
As to `COc1ccc(CCC(C#N)(CC2CC2)c2cccnc2)cc1` (stereo not drawn) [Compound 37], the inhibition at 500 µg/mL was found to be 9% in experiment [1], 100% in experiment [2], 100% in experiment [4] and 100% in experiment [5]. For the same molecule, the pest or weed control at 1000 µg/mL in experiment [3] and in experiment [6] was 92% each time.
As for `C#CCC(C#N)(CCc1ccc(OC)cc1)c1cccnc1` (stereo not drawn) [Compound 38], the inhibition at 500 µg/mL was found to be 100% in experiment [1], 100% in experiment [2], 100% in experiment [4] and 46% in experiment [5]. In addition, the pest or weed control at 1000 µg/mL is 92% in experiment [3] and 0% in experiment [6].
For `CC(C)CC(C#N)(CCc1ccc(F)cc1)c1cccnc1` (stereo not drawn) [Compound 39], the inhibition at 500 µg/mL is 44% in experiment [1], 57% in experiment [2], 75% in experiment [4] and 42% in experiment [5]. Further, the pest or weed control at 1000 µg/mL in experiment [3] and in experiment [6] was 92% each time.
`C=CCC(C#N)(CCc1ccc(OCC)cc1)c1cccnc1` (stereo not drawn) [Compound 40]: the inhibition at 500 µg/mL in experiment [1] came out at 61%; in experiment [2], 100%; in experiment [4], 100%; in experiment [5], 100%. For the same molecule, the pest or weed control at 1000 µg/mL is 92% in experiment [3] and 17% in experiment [6].
For the molecule `C#CCC(C#N)(CCc1ccc(F)cc1)c1cccnc1` (stereo not drawn) [Compound 41], the inhibition at 500 µg/mL came to 9% in experiment [1], 32% in experiment [2], 100% in experiment [4] and 48% in experiment [5]. Also, the pest or weed control at 1000 µg/mL amounted to 100% in experiment [3] and 0% in experiment [6].
As to `CCCCC(C#N)(CCc1ccc(OCC)cc1)c1cccnc1.Cl` (stereo not drawn) [Compound 42, α-butyl-4-ethoxy-α-(3-pyridinyl)-benzenebutanenitrile hydrochloride], the “Percent Growth Inhibition, PYT ULT” value in experiment [1] worked out at 3%. Moreover, in experiment [2], the “Percent Growth Inhibition, BOT CIN” value came to 100%. Besides, the “Percent Reduction of Disease, ERY POL” value in experiment [3] is reported as 100%. Also, the “Percent Growth Inhibition, COL GOS” value in experiment [4] was determined as 100%. In experiment [5], the “Percent Growth Inhibition, SCL MIN” value worked out at 44%. Further, in experiment [6], the “Percent Reduction of Disease, URO PHA” value is on record as 33%.
Turning to `CCOc1ccc(CCC(C#N)(CC(C)C)c2cccnc2)cc1` (stereo not drawn) [Compound 43], the inhibition at 500 µg/mL in experiment [1] worked out at 36%; in experiment [2], 100%; in experiment [4] it was 94%; in experiment [5] it was 100%. Moreover, the pest or weed control at 1000 µg/mL is 92% in experiment [3] and 83% in experiment [6].
